# Assays:
# [1] = biological target: T1, BtGH84 (Bacteroides thetaiotaomicron, UniProt Q89ZI2); experiment: binding constant; method not stated in main text; conditions: read-out: BtGH84 / None
# T1 construct: gene BT_4395; recombinant purified enzyme
# T1 sequence (Q89ZI2 22-737): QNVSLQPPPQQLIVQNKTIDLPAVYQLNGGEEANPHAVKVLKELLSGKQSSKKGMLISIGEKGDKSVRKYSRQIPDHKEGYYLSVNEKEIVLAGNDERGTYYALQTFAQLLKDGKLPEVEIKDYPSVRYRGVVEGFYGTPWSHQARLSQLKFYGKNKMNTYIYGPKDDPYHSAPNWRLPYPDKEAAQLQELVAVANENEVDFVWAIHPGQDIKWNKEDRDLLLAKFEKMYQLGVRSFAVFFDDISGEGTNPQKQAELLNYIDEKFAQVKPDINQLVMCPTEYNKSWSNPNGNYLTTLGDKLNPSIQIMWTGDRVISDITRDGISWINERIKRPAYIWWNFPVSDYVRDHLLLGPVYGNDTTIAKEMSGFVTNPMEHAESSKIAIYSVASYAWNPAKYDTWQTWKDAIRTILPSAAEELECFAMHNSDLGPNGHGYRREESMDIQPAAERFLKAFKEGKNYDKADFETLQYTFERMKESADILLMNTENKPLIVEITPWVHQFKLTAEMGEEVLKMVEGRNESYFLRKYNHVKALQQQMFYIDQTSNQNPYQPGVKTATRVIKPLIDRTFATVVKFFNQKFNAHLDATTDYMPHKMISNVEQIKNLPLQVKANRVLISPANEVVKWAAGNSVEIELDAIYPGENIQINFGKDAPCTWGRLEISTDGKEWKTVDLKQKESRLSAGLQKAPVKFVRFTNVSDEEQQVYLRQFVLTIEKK
# Description: (§1) binding constant; method not stated in main text on BtGH84
# [2] = biological target: T2, BtGH84 (Bacteroides thetaiotaomicron, UniProt Q89ZI2, C441S/C675S/Y571C); experiment: binding constant; method not stated in main text; conditions: read-out: BtGH84_TM / None
# T2 construct: gene BT_4395; recombinant purified enzyme
# T2 sequence (Q89ZI2 22-737 C441S/Y571C/C675S): T1 sequence (Q89ZI2 22-737)
# Description: as §1
smiles,measurement,setting,value
"CCNC1=N[C@@H]2[C@@H](O)[C@H](O)[C@@H](CO)O[C@@H]2S1 [compound 2, thiamet-G]",Kd,[1],0.05 µM
same,Kd,[2],0.052 ± 0.0057 µM

# From article PMC5674511, “Increase of enzyme activity through specific covalent modification with fragments” (Chemical Science, 2017)
